Several values for one entry are separate records, joined by “and”; a condition that tells them apart may be missing. Equal values may be shown once. Entries after “also recorded” stand apart in the source; their conditions may differ.
Key:
[1] = COSMIC-HF: concentrations of omecamtiv mecarbil in plasma; assay type: in vivo; conditions: for Maximum Concentration / Predose Concentration: mean (SD)
Procedure: (§1) In this randomized, double-blind study, done at 87 sites in 13 countries, patients with stable, symptomatic chronic heart failure and left ventricular ejection fraction 40% or lower were recruited. Patients were randomly assigned equally, via an interactive web response system, to receive 25 mg oral omecamtiv mecarbil twice daily (fixed-dose group), 25 mg twice daily titrated to 50 mg twice daily guided by pharmacokinetics (pharmacokinetic-titration group), or placebo for 20 weeks. The maximum concentration of omecamtiv mecarbil in plasma (primary endpoint) and changes in cardiac function and ventricular diameters were assessed. This trial is registered with ClinicalTrials.gov, number NCT01786512.
All patients received study treatment or placebo for 20 weeks and were followed up at week 24 after randomization. Patients in the pharmacokinetic-titration group received 25 mg omecamtiv mecarbil twice daily for 2 weeks to reach a steady state. If the trough omecamtiv mecarbil concentration in plasma before the morning dose (predose concentration) at 2 weeks was less than 200 ng/mL, the dose was titrated up to 50 mg twice daily at week 8. If the predose concentration was 200 ng/mL or higher, patients continued taking 25 mg twice daily until the end of the study. To access the pharmacokinetics in this population more rigorously than permitted by just trough sampling, intensive pharmacokinetic sampling was done at the end of weeks 2 and 12, over a period of 8 h on each day.
(§2) The primary endpoint was the maximum concentration of omecamtiv mecarbil at the week 2 and 12 visits and the predose concentration at the week 2, 8, 12, 16, and 20 visits. Secondary endpoints were changes from baseline in systolic ejection time, stroke volume, left ventricular end-systolic and end-diastolic diameters, heart rate, and concentration of NT-proBNP in plasma at week 20. Additional prespecified exploratory echocardiographic endpoints included left ventricular fractional shortening, end-systolic and end-diastolic volumes, and ejection fraction. The clinical events committee adjudicated whether admissions to hospital and deaths and all episodes of myocardial ischaemia or infarction reported by investigators or based on an increase of cardiac troponin I concentration in plasma met the criteria for study endpoints.

[2] = system: patients with stable, symptomatic chronic heart failure and left ventricular ejection fraction 40% or lower; assay: COSMIC-HF: changes in cardiac function, ventricular diameters, heart rate and NT-proBNP; assay type: in vivo, human; conditions: for NT-proBNP concentration in plasma, difference versus placebo: 4 weeks after omecamtiv mecarbil was stopped
Procedure: as §1
(§3) Patients attended study clinics at weeks 2 and 8, after which visits were every 4 weeks until week 24. Transthoracic echocardiograms were done at baseline, week 12, and week 20 and analyzed centrally. Blood samples were obtained at specified visits for analysis in the central laboratory.
as §2
The standard deviations (SDs) for maximum and minimum concentrations of omecamtiv mecarbil in plasma were assumed to be in the range of 40-140 ng/mL.^6-8,11-13 On this basis, it was calculated that 142 patients in the pharmacokinetic-titration group would provide a two-sided 95% CI with half width of 6·6-23·0 ng/mL, assuming that 5% of patients would not have assessable concentrations of omecamtiv mecarbil, which was deemed sufficient for accurate population estimates of these concentrations. Previous work in a similar population of patients had shown that plasma concentrations of omecamtiv mecarbil as low as 100-200 ng/mL had some effect on cardiac function, but that the effect on stroke volume seemed to plateau with concentrations greater than 400 ng/mL, and that plasma concentrations greater than 1200 ng/mL were not clinically tolerated.^7 Thus, it was attempted to achieve a maximum concentration greater than 200 ng/mL and avoid exposures to concentrations greater than 1000 ng/mL. Additionally, with 150 patients in each group and significance set at α=0·05 (two-sided), it was estimated that the statistical power for detecting a treatment effect on the echocardiographic endpoints of systolic ejection time, stroke volume, and left ventricular end-systolic diameter would be more than 90%. Differences between groups for changes in echo cardio graphic variables, heart rate, and NT-proBNP concentrations from baseline were estimated with a repeated measures model fitted separately for each variable and that included the stratification factors of presence or absence of atrial fibrillation or flutter at randomisation, baseline value, treatment group, visit, and treatment group by visit interaction. An unstructured covariance matrix was used to account for the correlation between visits within patients. Least squares mean differences with 95% CIs of the mean relative to placebo are presented unless otherwise indicated. As the study was hypothesis generating, all p values are nominal with no multiplicity adjustment. This study is registered with ClinicalTrials.gov, number NCT01786512.

[3] = system: patients with stable, symptomatic chronic heart failure and left ventricular ejection fraction 40% or lower; assay: COSMIC-HF: safety variables and adverse events; assay type: in vivo
Procedure: as §1, §3, §2

[4] = system: patients; conditions: previous work, similar population of patients; cited from earlier work
[5] = Week 2, fixed-dose group (25 mg twice daily)
[6] = Week 12, fixed-dose group (25 mg twice daily)
[7] = Week 12, fixed-dose group (25 mg twice daily), listed as OM
[8] = Week 12, fixed-dose group, of 137 patients with measurements
[9] = Week 12, pharmacokinetic-titration group
[10] = Week 12, pharmacokinetic-titration group, listed as OM
[11] = Week 12, pharmacokinetic-titration group, of 127 patients with measurements
[12] = pharmacokinetic-titration group
[13] = week 20, pharmacokinetic-titration group
[14] = pharmacokinetic-titration OM group (n = 146)

## COC(=O)N1CCN(Cc2cccc(NC(=O)Nc3ccc(C)nc3)c2F)CC1 [omecamtiv mecarbil]
[1]; [5]
  Maximum Concentration: 212 (70.4) 33.2% ng/mL
  Predose Concentration: 174 (62.2) 35.7% ng/mL
[1]; Week 2, pharmacokinetic-titration group (25 mg titrated to 50 mg twice daily)
  Predose Concentration: 179 (68.8) 38.4% ng/mL
[1]; Week 2, pharmacokinetic-titration group
  Maximum Concentration: 212 (81.0) 38.2% ng/mL
[1]; Week 8, fixed-dose group (25 mg twice daily)
  Predose Concentration: 156 (69.1) 44.2% ng/mL
[1]; Week 8, pharmacokinetic-titration group
  Predose Concentration: 161 (74.4) 46.1% ng/mL
[1]; [6]
  Maximum Concentration: 200 (SD 71) ng/mL and 200 (71) ng/mL
  Predose Concentration: 165 (SD 68) ng/mL
[1]; [7]
  Maximum Concentration: 200 (71.1) 35.6% ng/mL
  Predose Concentration: 165 (67.9) 41.3% ng/mL
[1]; [8]
  Patients with maximum drug concentrations in plasma greater than or equal to 200 ng/mL, %: 46%
  Patients with maximum drug concentrations in plasma greater than or equal to 200 ng/mL, number: 63
[1]; [9]
  Maximum Concentration: 318 (129) ng/mL
  Predose Concentration: 263 (116) ng/mL
[1]; [10]
  Maximum Concentration: 318 (129) 40.5% ng/mL
  Predose Concentration: 263 (116) 44.1% ng/mL
[1]; [11]
  Patients with maximum drug concentrations in plasma greater than or equal to 200 ng/mL, %: 87%
  Patients with maximum drug concentrations in plasma greater than or equal to 200 ng/mL, number: 110
[1]; Week 16, fixed-dose group (25 mg twice daily)
  Predose Concentration: 155 (69.0) 44.6% ng/mL
[1]; Week 16, pharmacokinetic-titration group
  Predose Concentration: 240 (120) 50.0% ng/mL
[1]; Week 20, fixed-dose group (25 mg twice daily)
  Predose Concentration: 149 (71.2) 47.8% ng/mL
[1]; Week 20, pharmacokinetic-titration group
  Predose Concentration: 239 (118) 49.5% ng/mL
[1]; fixed-dose group
  Maximum observed concentration in plasma at any time during the study: 453 ng/mL
[1]; [12]
  Maximum observed concentration in plasma at any time during the study: 831 ng/mL
  Patients with a maximum concentration greater than 750 ng/mL: one
[2]; fixed-dose group
  NT-proBNP concentration in plasma, difference versus placebo: -1327 pg/mL
[2]; [12]
  NT-proBNP concentration in plasma, difference versus placebo: -1306 pg/mL
[2]; chronic oral administration, across both omecamtiv mecarbil groups
  Systolic ejection times, average increases: 11 to 25 ms
[2]; week 20, fixed-dose group
  NT-proBNP concentration in plasma, least square mean difference versus placebo: -822 pg/mL
  Stroke volume, least square mean difference versus placebo: 5 mL
  Systolic ejection time, least square mean difference versus placebo: 11 ms
[2]; [13]
  Fractional shortening compared with placebo: increases
  Left ventricular end-diastolic and end-systolic volumes compared with placebo: reductions
  NT-proBNP concentration in plasma, least square mean difference versus placebo: -970 pg/mL
  Stroke volume, least square mean difference versus placebo: 3.6 mL and 4 mL
  Systolic ejection time, least square mean difference versus placebo: 25 ms
[3]; 20 weeks of treatment
  Frequencies of adverse events, serious adverse events and deaths across groups (versus placebo): did not differ; also recorded: similar
[3]; fixed-dose OM group (n = 150)
  Adjudicated clinical events: Cardiovascular death, %: (1%)
  Adjudicated clinical events: Cardiovascular death, number: 1
  Adjudicated clinical events: Death, %: (1%)
  Adjudicated clinical events: Death, number: 1
[3]; human, in vivo, 20 weeks
  Adjudicated clinical events: Hospital admission: Chest paint†, %: (1%)
  Adjudicated clinical events: Hospital admission: Chest paint†, number: 2
  Adjudicated clinical events: Hospital admission: Myocardial infarction, %: (1%)
  Adjudicated clinical events: Hospital admission: Myocardial infarction, number: 1
  Adjudicated clinical events: Hospital admission: Unstable angina, %: (1%)
  Adjudicated clinical events: Total myocardial infarction**, %: (1%)
  Serious adverse events: Acute cardiac failure, %: (2%)
  Serious adverse events: Acute cardiac failure, number: 3
  Serious adverse events: Cardiac, %: (12%)
  Serious adverse events: Congestive cardiac failure, %: (2%)
  Serious adverse events: Congestive cardiac failure, number: 3
  Serious adverse events: Ventricular tachycardia, %: (1%)
[3]; in vivo
  Adjudicated clinical events: Hospital admission: Myocardial infarction, number: 0
  Cardiac troponin | concentrations: Change to Week 24: 0 ng/mL
  Share of maximum cardiac troponin I increases from baseline that were less than 0·1 ng/mL: 92%
  Share of maximum cardiac troponin I increases from baseline that were less than 0·2 ng/mL: 97%
  Time for plasma cardiac troponin I to return to baseline levels after discontinuing: ≤ 4 weeks
  Troponin-triggered potential adverse events deemed myocardial ischaemia or myocardial infarction on adjudication: none
[3]; [14]
  Adjudicated clinical events: Cardiovascular death, %: (1%)
  Adjudicated clinical events: Cardiovascular death, number: 2
  Adjudicated clinical events: Death, %: (2%)
  Adjudicated clinical events: Death, number: 3
[4]
  Plasma concentrations at which the effect on stroke volume seemed to plateau: greater than 400 ng/mL
  Plasma concentrations not clinically tolerated: greater than 1200 ng/mL
  Plasma concentrations that had some effect on cardiac function (as low as): 100 to 200 ng/mL
